Holding throughout (format): functional
The test system of one test is A549. Description: Cytotoxicity against human A549 cells assessed as growth inhibition after 48 hrs by SRB assay. The following applies: A549, 48 h.
The nature of test [1]: Cytotoxicity against human MiaPaCa cells assessed as growth inhibition after 48 hrs by SRB assay. The following applies: MIA PaCa-2, 48 h. For orientation: Sulforhodamine B stains cellular protein and so reports cell mass.
A further test has as its system MDA-MB-231. Description: Cytotoxicity against human MDA-MB-231 cells assessed as growth inhibition after 48 hrs by SRB assay. The conditions noted are these: MDA-MB-231, 48 h.
A further test has as its system HeLa. Description: Cytotoxicity against human HeLa cells assessed as growth inhibition after 48 hrs by SRB assay.

This note sets out measurements from ChEMBL document CHEMBL4000239, “A novel piperazine linked β-amino alcohols bearing a benzosuberone scaffolds as anti-proliferative agents” (2017).

Broadly, the GI50 is the concentration at which growth is held to half of that of the control. `COC(=O)Nc1nc2cc(C(=O)c3cccs3)ccc2[nH]1` [NOCODAZOLE]: the GI50 is 90 nM in the test on A549, 91 nM in test [1], 65 nM with MDA-MB-231 and 0.086 µM with HeLa.

Regarding `Cc1cc2c(cc1C)C(Cl)=C(COCC(O)CN1CCN(c3ccc(C(F)(F)F)cc3)CC1)CCC2` (stereo not drawn), the GI50 in the test with A549 was 3000 nM; in test [1], 2000 nM; with MDA-MB-231, 2500 nM; in the test on HeLa, 3.8 µM.

As for `CCOC(=O)N1CCN(CC(O)COCC2=C(Cl)c3cc(C)c(C)cc3CCC2)CC1` (stereo not drawn), the GI50 in the test on A549 came to 4000 nM; in test [1], 7900 nM; in the test on MDA-MB-231, 7300 nM; with HeLa it was 7.2 µM.

For the compound `Cc1cc2c(cc1C)C(Cl)=C(COCC(O)CN1CCOCC1)CCC2` (stereo not drawn), the GI50 in the test on A549 is 5200 nM; in test [1], 5600 nM; in the test on MDA-MB-231, 7900 nM; in the test with HeLa it was 7.4 µM.

For the compound `Cc1cc2c(cc1C)C(Cl)=C(COCC(O)CN1CCCCC1)CCC2` (stereo not drawn), the GI50 in the test with A549 is 1500 nM; in test [1], 2600 nM; in the test with MDA-MB-231 it was 2100 nM; in the test with HeLa it was 1.7 µM.

As to `Cc1cc2c(cc1C)C(Cl)=C(COCC(O)CN1CCN(c3ccccc3)CC1)CCC2` (stereo not drawn), the GI50 came to 5800 nM in the test on A549, 8800 nM in test [1], 7800 nM in the test on MDA-MB-231 and 6.9 µM in the test on HeLa.

In the case of `COc1ccccc1N1CCN(CC(O)COCC2=C(Cl)c3cc(C)c(C)cc3CCC2)CC1` (stereo not drawn), the GI50 in the test on A549 stood at 2100 nM; in test [1], 2800 nM; in the test with MDA-MB-231, 3000 nM; with HeLa, 2.4 µM.

Consider `Cc1cc2c(cc1C)C(Cl)=C(COCC(O)CN1CCN(c3ccccc3F)CC1)CCC2` (stereo not drawn), for which the GI50 with A549 was found to be 6300 nM; in test [1] it was 9600 nM; in the test with MDA-MB-231, 9000 nM; with HeLa, 7.8 µM.

In the case of `Cc1cc2c(cc1C)C(Cl)=C(COCC(O)CN1CCC(Cc3ccccc3)CC1)CCC2` (stereo not drawn), the GI50 with A549 is 1800 nM; in test [1], 1200 nM; with MDA-MB-231 it was 2900 nM; with HeLa, 1.4 µM.

Regarding `Cc1cc2c(cc1C)C(Cl)=C(COCC(O)CN1CCN(c3ccc([N+](=O)[O-])cc3)CC1)CCC2` (stereo not drawn), the GI50 in the test on A549 was determined as 23 nM; in test [1] it was 56 nM; in the test on MDA-MB-231 it was 10 nM; in the test on HeLa, 0.097 µM.

In the case of `Cc1cc2c(cc1C)C(Cl)=C(COCC(O)CN1CCSCC1)CCC2` (stereo not drawn), the GI50 in the test with A549 came out at 900 nM; in test [1] it was 1500 nM; in the test on MDA-MB-231, 2900 nM; with HeLa it was 1 µM.

On to `Cc1cc2c(cc1C)C(Cl)=C(COCC(O)CN1CCN(C)CC1)CCC2` (stereo not drawn), for which the GI50 stood at 18200 nM in the test on A549, 24400 nM in test [1], 20800 nM in the test on MDA-MB-231 and 16.3 µM in the test on HeLa.
